From article PMC11372839, “Unraveling the Potential of Vitamin B3-Derived Salts with a Salicylate Anion as Dermal Active Agents for Acne Treatment” (Molecular Pharmaceutics, 2024) come the findings set out here.

Converted amounts (≈) assume the structure as drawn. Like-named read-outs stand apart in the source and are kept apart here.

The nature of series [1]: Octanol–water partition coefficient, shake-flask method (OECD Test No. 107). Format: physicochemical. The procedure:
The octanol–water partition coefficients (KOW) of the synthesized products were estimated by the shake-flask method according to the OECD Test No. 107 guidelines (Partition Coefficient n-Octanol/Water: Shake-Flask Method). Measurements were performed using mutually saturated distilled water and 1-octanol in a glass vial containing a magnetic stir bar. First, the synthesized products were dissolved in distilled water (or 1-octanol) at a chosen concentration (0.01 mol per 1 L of octanol or water), and then proper amounts of the second solvent (octanol or water) were added. Subsequently, two duplicate runs were carried out with different solvent ratios: 4 mL of 1-octanol and 2 mL of water (2:1), 4 mL of 1-octanol and 4 mL of water (1:1), and 4 mL of 1-octanol and 8 mL of water ([…]). All vials were shaken at a constant temperature of 25 °C. After 24 h, all samples were centrifuged and the aqueous and octanolic phases were collected with a syringe. The concentrations of compounds in water were determined spectrophotometrically using a Rayleigh UV-1601 spectrophotometer (Beijing Beifen-Ruili Analytical, China) based on calibration curves made previously (at λmax = 262 nm) vs concentration for each substance. Two repetitions of each measurement were performed in a specific solvent ratio (1:1, 1:2, and 2:1). Finally, the log KOW was calculated as the average of six results collected for each compound.
The outermost layer of the skin (stratum corneum) contains around […] water, a relatively low amount compared to the rest of the human body. Given the hydrophobic nature of 1-octanol, it can be used as a simplified model for the stratum corneum.[50] The octanol–water partition coefficient (KOW) value represents the proportion between the concentrations of a substance in both liquid phases of a system composed of water and 1-octanol. […] The log KOW values are given in Figure 6 (exact values are provided in Table S4, Supporting Information).

For a further series, the system named is Cutibacterium acnes. Briefly: MIC and MBC determination, microdilution method. The format is cell-based. As to conditions: Cutibacterium acnes; for MIC: 48 h, read-out: MIC, C. acnes; for MBC: read-out: MBC, C. acnes.
For a further series, the system named is Pseudomonas aeruginosa. The series is described as follows: MIC and MBC determination, microdilution method. The note with it: for MIC: 18 h, read-out: MIC, P. aeruginosa. The format is cell-based.
For another series, the system named is Candida albicans. Briefly: MIC and MFC determination, microdilution method. The format is cell-based. The note with it: clinical strain, tested 4 096 to 0.125 μg/mL, b = out of range. How it is done:
The antimicrobial activities of the compounds were tested against clinical strains of an aerobic Gram-negative bacterium—Pseudomonas aeruginosa (P. aeruginosa), facultative anaerobic Gram-positive bacteria—Staphylococcus aureus (S. aureus) and Staphylococcus epidermidis (S. epidermidis), anaerobic Gram-positive bacterium—Cutibacterium acnes (C. acnes), and yeast-like fungus—Candida albicans (C. albicans).
Aerobic and facultative anaerobic bacteria cultures were grown in Brain Heart Infusion broth (BHI, bioMerieux, France) at 35 °C ± 1 °C for 18 h, C. acnes cultures were grown in thioglycolate broth with resazurin (TGB, bioMerieux, France) at 35 ± 1 °C for 48 h, and yeast cultures were grown in Sabouraud dextrose broth (SDB, Merck, Germany) at 35 ± 1 °C for 24 h. After incubation, each culture was diluted in a suitable liquid medium: P. aeruginosa, S. aureus, and S. epidermidis—Mueller–Hinton broth (MHB; Oxoid, UK); C. acnes—TGB; and C. albicans—SDB, to obtain a final suspension containing about 10^6 CFU/mL.
The microdilution method was employed to determine the compounds’ MIC (Minimal Inhibitory Concentration) and MBC/MFC (Minimal Bactericidal Concentration/Minimal Fungicidal Concentration) against the tested bacterial and fungal strains.
The compounds were serially diluted (2-fold) in the respective media (P. aeruginosa, S. aureus, and S. epidermidis—MHB, C. acnes—TGB, and C. albicans—SDB in 96-well plates), and the microbial suspensions were added. The compounds were tested in the final concentration range of 4 096 to 0.125 μg/mL, and the final microbial inoculum was approximately 5 ×10^5 CFU/mL. The tests were incubated at 35 °C ± 1 °C for 18 h (P. aeruginosa, S. aureus, and S. epidermidis) or 24 h (C. albicans) or 48 h (C. acnes). C. acnes was incubated in an anaerobic atmosphere using a GENbag anaer (bioMerieux, France). Media (without the strains) added to the different concentrations of tested compounds and media inoculated with microbial suspension were used as a negative control and growth control, respectively.
The MIC was defined as the lowest concentration at which visible growth was inhibited. MBC and MFC concentrations were determined as an extension of the MIC test. […] The plates were incubated at 35 ± 1 °C for 18–72 h. C. acnes was incubated in an anaerobic atmosphere. The MBC/MFC was defined as the lowest concentration at which no growth was observed. All tests were performed in duplicate.

Setting [2] is: shake-flask, 25 °C, 24 h, average of six results, read-out: Octanol-water partition coefficient (log Kow).
Setting [3] is: clinical strain, anaerobic, tested 4 096 to 0.125 μg/mL, b = out of range.

Take `CCCCCC[n+]1cccc(C(N)=O)c1.O=C([O-])c1ccccc1O` [compound 3]: the logP at 24 h in series [1] (setting [2]) is -0.18.

Consider `CCCCCCCCCC[n+]1cccc(C(N)=O)c1.O=C([O-])c1ccccc1O` [compound 5], for which the MIC with Cutibacterium acnes and in the series on Pseudomonas aeruginosa was 1020 µg/mL in each case. Also, in the series with Cutibacterium acnes, the MBC amounted to 1020 µg/mL. Besides, the logP at 24 h in series [1] (setting [2]) was determined as 0.59.

For `CCCCCCCC[n+]1cccc(C(N)=O)c1.O=C([O-])c1ccccc1O` [compound 4], the logP at 24 h in series [1] (setting [2]) amounted to 0.07.

Consider `O=C(O)c1ccccc1O` [SAL, salicylic acid, reference compound], for which the MIC with Candida albicans (24 h, read-out: MIC, C. albicans) came out at 2050 µg/mL (≈ 14.8 mM); with Cutibacterium acnes (setting [3]), 1020 µg/mL (≈ 7.41 mM); in the series with Pseudomonas aeruginosa (clinical strain, tested 4 096 to 0.125 μg/mL, b = out of range), 2050 µg/mL (≈ 14.8 mM). Besides, the MFC with Candida albicans (read-out: MFC, C. albicans) came out at 2050 µg/mL (≈ 14.8 mM). Besides, the MBC in the series on Cutibacterium acnes (setting [3]) was determined as 4100 µg/mL (≈ 29.7 mM); in the series with Pseudomonas aeruginosa (clinical strain, tested 4 096 to 0.125 μg/mL, b = out of range, read-out: MBC, P. aeruginosa) it was 4100 µg/mL (≈ 29.7 mM). In series [1], this compound registered a logP at 24 h of 1.82.
